Experiments:
MSP142 [1] = molecular target: T1, MSP142 (Plasmodium falciparum, UniProt Q8I0U8); experiment: inhibition of suramin binding (fluorescence, 384-well plate); settings: 10 μM analogue, 2 μM suramin, 0.1 mg/ml MSP142
Description: MSP142 (0.1 mg/ml), 10 μM suramin analogue and 2 μM suramin were combined in a 384-well black polypropylene low binding plate (total reaction volume 100 μL). Fluorescence was read at λex 320 nm/λem 405 nm on a BMG Polarstar fluorimeter. Readings were taken before, and 1 hour after, addition of suramin.
Target sequence in this assay (Q8I0U8 1327-1699): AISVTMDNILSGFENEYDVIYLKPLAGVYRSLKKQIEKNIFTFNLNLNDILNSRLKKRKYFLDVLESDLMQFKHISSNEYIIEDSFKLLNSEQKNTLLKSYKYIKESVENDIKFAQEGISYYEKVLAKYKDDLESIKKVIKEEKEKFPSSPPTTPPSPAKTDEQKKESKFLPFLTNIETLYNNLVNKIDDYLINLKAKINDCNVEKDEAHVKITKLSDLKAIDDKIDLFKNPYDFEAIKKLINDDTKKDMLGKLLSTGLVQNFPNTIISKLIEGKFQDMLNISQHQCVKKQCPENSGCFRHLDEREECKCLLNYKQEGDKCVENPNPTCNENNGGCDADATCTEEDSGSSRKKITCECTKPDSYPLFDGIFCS

P. falciparum (FCB-1) = experiment: growth inhibition assay by [3H] hypoxanthine uptake; format: cell-based, Plasmodium falciparum; settings: 200 μM
Description: Asexual blood stages of P. falciparum (FCB-1) were maintained at 37° C. in RPMI 1640/Albumax medium (Gibco) supplemented with 2 mM L-glutamine as previously described (Blackman, 1994 Methods Cell Biol. 45, 213-220). Cultures were gassed with 7% CO2, 5% O2 and 88% N2 and maintained by routine passage in fresh human erythrocytes. Parasites were synchronised by Percoll and sorbitol treatment (Holder & Freeman, 1982 J. Exp. Med. 156, 1528-1538); schizonts were purified by centrifugation over Percoll and then returned to culture in the presence of fresh erythrocytes. After 4 h, during which time released merozoites invaded erythrocytes, the cells were treated with 5% sorbitol for 10 min to lyse the residual schizonts, before returning the parasites to culture.
Suramin and NTS were also assayed for P. falciparum growth inhibition using [^3H] hypoxanthine uptake (generally as described by Desjardins et al, 1979 Antimicrob. Agents Chemother. 16, 710-718). Serial dilutions of the compounds in 96-well plates were incubated at 37° C. with purified mature schizonts at a final parasitaemia of ^˜0.5% and a haematrocrit of ^˜2% in triplicate cultures. […] The filters were wetted with scintillation cocktail and the bound radioactivity counted in a β-counter. […] The amount of radioactivity in each sample was expressed as a percentage of activity in the control wells containing no compound. […]

[2] = titration of fluorescent analogues in PBS buffer only; format: physicochemical; settings: 0.01-200 μM
Description: Analogues 258, 261, 264 and 266 were titrated against (a) PBS buffer only, (b) 0.1 mg/ml bovine serum albumin in PBS or (c) 0.1 mg/ml MSP142 in PBS. Fluorescence observed was compared to naphthalenetrisulphate (non-specific reagent) and suramin.

MSP142 [3] = molecular target: T1, MSP142; experiment: P. falciparum MSP1 secondary processing assay (merozoites, Western blot); format: biochemical; design: Merozoites were purified as described previously; endogenous in cells; host or cells: purified P. falciparum merozoites released from mature schizonts; settings: 1 mM, 1 h at 37° C.
Description: Merozoites were purified as described previously (Blackman 1994 Methods Cell Biol. 45, 213-220) after release from mature schizonts into growth medium supplemented with 2 mM EGTA. Merozoites were harvested by centrifugation, followed by sequential passage through pre-wetted filters of 3 and 1.2 μm pore size. Merozoites were washed in Ca^2+- and Mg^2+-free PBS in the presence of protease inhibitors (leupeptin, antipain and aprotinin at 10 μg ml^−1). The merozoites were then washed and resuspended in 50 mM Tris-HCl pH 7.2, 5 mM CaCl2, 1 mM MgCl2, plus leupeptin, antipain and aprotinin at 10 μg ml^−1 (processing buffer), and divided into 18 μl aliquots. Two microlitres of either diluted compound or reaction buffer were added and the samples incubated for 1 h at 37° C. Control assays included those in which processing was prevented by immediate addition of either SDS, 1 mM PMSF or 5 mM EGTA; and those in the absence of compound or in the presence of 0.2 mM TLCK (tosyl-L-lysyl chloromethyl ketone). After 1 h the reaction was stopped, and MSP1 processing was analysed using a Western blot-based assay (Blackman 1994 Methods Cell Biol. 45, 213-220). The blots were probed with a rabbit anti-MSP133/MSP142 antibody and the bands corresponding to MSP142 and MSP133 polypeptides were visualised by enhanced chemiluminescence.
Purified merozoites were incubated in the presence or absence of suramin or NTS and polypeptides subjected to SDS-PAGE and Western blotting.
Target sequence in this assay (Q8I0U8 20-1326): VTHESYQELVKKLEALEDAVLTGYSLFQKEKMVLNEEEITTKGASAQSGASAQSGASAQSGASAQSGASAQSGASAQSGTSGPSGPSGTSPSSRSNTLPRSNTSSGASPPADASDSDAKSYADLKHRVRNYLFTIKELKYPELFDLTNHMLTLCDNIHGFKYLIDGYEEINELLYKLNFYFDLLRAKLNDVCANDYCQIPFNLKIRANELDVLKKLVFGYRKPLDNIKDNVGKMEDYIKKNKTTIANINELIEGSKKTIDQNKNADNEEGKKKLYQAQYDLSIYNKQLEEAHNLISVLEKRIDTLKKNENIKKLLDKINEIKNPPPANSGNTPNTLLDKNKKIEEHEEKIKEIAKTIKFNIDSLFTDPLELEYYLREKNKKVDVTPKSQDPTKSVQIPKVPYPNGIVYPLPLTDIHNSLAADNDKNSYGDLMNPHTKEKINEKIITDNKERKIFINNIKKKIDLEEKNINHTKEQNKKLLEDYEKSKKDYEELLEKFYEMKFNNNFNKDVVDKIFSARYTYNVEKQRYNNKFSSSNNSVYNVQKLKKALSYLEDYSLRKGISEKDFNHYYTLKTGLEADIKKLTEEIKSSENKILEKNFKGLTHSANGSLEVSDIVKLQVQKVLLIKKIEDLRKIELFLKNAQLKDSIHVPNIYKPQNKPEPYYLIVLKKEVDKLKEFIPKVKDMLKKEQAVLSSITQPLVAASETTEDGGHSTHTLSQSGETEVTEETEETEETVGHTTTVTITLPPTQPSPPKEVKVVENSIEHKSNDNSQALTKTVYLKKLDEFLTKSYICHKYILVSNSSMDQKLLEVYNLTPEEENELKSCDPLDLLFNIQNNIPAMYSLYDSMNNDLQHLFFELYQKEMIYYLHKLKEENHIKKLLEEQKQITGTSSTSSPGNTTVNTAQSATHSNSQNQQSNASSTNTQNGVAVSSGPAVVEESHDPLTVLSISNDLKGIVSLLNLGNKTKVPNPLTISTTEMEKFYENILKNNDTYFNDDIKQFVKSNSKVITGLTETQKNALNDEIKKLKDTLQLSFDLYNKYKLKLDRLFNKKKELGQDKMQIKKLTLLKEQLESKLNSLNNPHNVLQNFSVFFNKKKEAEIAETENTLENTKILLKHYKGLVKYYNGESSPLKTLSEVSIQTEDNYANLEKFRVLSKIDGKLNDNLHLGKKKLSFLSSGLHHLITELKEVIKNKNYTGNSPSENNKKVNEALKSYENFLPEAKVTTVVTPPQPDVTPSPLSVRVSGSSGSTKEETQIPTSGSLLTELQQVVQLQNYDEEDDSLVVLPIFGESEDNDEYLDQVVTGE
Target sequence in this assay (Q8I0U8 1327-1699): as the sequence (Q8I0U8 1327-1699) above

Row | SMILES | effect on the fluorescent signal of suramin / own fluorescence (MSP142 [1]) | inhibition of invasion at the highest concentration tested (P. falciparum (FCB-1)) | fluorescence in buffer alone [2] | inhibition of MSP142 secondary processing (MSP142 [3])
1 | O=S(=O)(O)c1ccc2c(S(=O)(=O)O)cc(S(=O)(=O)O)cc2c1 [NTS, Naphthalene-1,3,6-trisulphonic acid] | most fluorescent compound tested | did not inhibit invasion | fluorescent in buffer alone | 
2 | O=S(=O)(F)Cc1ccccc1 [PMSF] |  |  |  | absence of MSP133
